In patent publication US6284918A, “Selective inhibitors of prostaglandin endoperoxide synthase-2” (priority 1999, dated 2001):
Where two headings read alike, the source gives them in different places.

Experiments:
human PGHS-2 = target: T1, human PGHS-2 (Homo sapiens, UniProt P35354); assay: Time- and concentration-dependent inhibition of human PGHS-2, TLC assay (3 h preincubation); type: biochemical; conditions: for IC50: PGHS-2 88 nM; for IC50 (PGHS-1)/IC50 (PGHS-2): selectivity ratio, 180 min; for inhibition of PGHS-2 (in words): table footnotes
T1 construct: made in house; host or cells: insect cells (baculovirus vectors)
T1 sequence (P35354 18-604): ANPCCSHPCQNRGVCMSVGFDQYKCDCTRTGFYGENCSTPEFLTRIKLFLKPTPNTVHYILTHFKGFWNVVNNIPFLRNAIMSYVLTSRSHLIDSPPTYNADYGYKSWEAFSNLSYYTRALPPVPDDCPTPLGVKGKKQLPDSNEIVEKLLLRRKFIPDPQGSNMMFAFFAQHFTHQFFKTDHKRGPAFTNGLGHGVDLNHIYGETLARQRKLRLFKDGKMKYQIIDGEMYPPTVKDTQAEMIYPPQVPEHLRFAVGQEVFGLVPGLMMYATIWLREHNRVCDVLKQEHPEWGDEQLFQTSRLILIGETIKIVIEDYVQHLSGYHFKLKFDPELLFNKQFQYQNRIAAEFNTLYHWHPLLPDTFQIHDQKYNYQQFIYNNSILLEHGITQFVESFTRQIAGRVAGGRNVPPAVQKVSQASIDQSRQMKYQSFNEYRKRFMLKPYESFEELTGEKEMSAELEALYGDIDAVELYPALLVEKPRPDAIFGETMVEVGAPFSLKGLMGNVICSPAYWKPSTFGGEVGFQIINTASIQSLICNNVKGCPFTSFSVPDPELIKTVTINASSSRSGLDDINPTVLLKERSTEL
Protocol: (§1) Cyclooxygenase activity of ovine PGHS-1 (22 nM) or human PGHS-2 (88 nM) was assayed by TLC. Reaction mixtures of 200 μL consisted of hematin-reconstituted protein in 100 mM Tris-HCl, pH 8.0, 500 μM phenol, and [1-^14 C]arachidonic acid (50 μM, 57 mCi/mmol). For the time-dependent inhibition assay, hematin-reconstituted PGHS-1 (22 nM) or PGHS-2 (88 nM) was preincubated at room temperature for 2 hours and then at 0° C. for 1 hour with varying concentrations of inhibitor in DMSO followed by the addition of [1-^14 C]arachidonic acid (50 μM) for 30 seconds at 37° C. Reactions were terminated by solvent extraction in diethyl ether/methanol/1 M citrate, pH 4.0 (30:4:1). The organic phase was spotted on a TLC plate (Amersham Corp.). The plate was developed with ethyl acetate/methylene chloride/glacial acetic acid (75:25:1) at 4° C. Radiolabeled products were quantitated with a radioactivity scanner (Bioscan, Inc., Washington, D.C.).
(§2) conducted at room temperature for 3 hours. The cyclooxygenase reaction was
(§3) initiated by the addition of 14C-arachidonic acid (50 μM) to the
(§4) incubation mixtures at 37 C for 30 seconds.
(§5) conducted at room temperature for 3 hours. The cyclooygenase reaction was
(§6) initiated by the addition of ^14 C-arachidonic acid ([…]) to the
(§7) incubation mixtures at 37° C. for 30 sec.

ovine PGHS-1 = target: T2, ovine PGHS-1 (Ovis aries, UniProt P05979); assay: Time- and concentration-dependent inhibition of ovine PGHS-1, TLC assay (3 h preincubation); type: biochemical; conditions: for inhibition of PGHS-1 (in words): table footnotes
T2 construct: PGHS-1 was purified from sheep seminal vesicles as described earlier; tissue Oxford Biomedical Research, Inc. (supplier of the sheep seminal vesicles); host or cells: sheep seminal vesicles
T2 sequence (P05979 25-600): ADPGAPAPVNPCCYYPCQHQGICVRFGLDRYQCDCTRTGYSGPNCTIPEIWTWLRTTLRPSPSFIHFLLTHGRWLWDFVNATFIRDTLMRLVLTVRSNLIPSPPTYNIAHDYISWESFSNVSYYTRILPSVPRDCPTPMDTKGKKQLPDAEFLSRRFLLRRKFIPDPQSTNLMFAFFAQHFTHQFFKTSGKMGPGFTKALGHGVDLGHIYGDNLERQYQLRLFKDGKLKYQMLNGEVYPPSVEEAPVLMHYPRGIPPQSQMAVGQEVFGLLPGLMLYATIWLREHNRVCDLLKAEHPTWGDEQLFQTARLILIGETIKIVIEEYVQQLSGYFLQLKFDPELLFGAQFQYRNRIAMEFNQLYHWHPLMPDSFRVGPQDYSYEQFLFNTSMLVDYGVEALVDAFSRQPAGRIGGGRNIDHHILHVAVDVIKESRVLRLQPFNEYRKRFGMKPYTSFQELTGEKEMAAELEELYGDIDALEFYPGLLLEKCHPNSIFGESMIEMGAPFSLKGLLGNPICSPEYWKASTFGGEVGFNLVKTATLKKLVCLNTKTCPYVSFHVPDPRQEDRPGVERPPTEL
Protocol: as §1, §2, §3, §4, §5, §6, §7

hCOX-2 = target: T3, hCOX-2 (Homo sapiens, UniProt P35354); assay: Time- and concentration-dependent inhibition of hCOX-2 (1 h incubation); type: biochemical
T3 construct: made in house; host or cells: insect cells (baculovirus vectors)
T3 sequence (P35354 18-604): T1 sequence (P35354 18-604)
Protocol: (§8) ^a IC50 values were determined by incubating several inhibitor
(§9) concentrations in DMSO with purified hCOX-2 or oCOX-1 for 1 h at rt;
(§10) assays were run in duplicate. IC50 values are average of duplicate
(§11) determinations for each test compounds.

oCOX-1 = target: T4, oCOX-1 (Ovis aries, UniProt P05979); assay: Time- and concentration-dependent inhibition of oCOX-1 (1 h incubation); type: biochemical, ovine
T4 construct: PGHS-1 was purified from sheep seminal vesicles as described earlier; tissue Oxford Biomedical Research, Inc. (supplier of the sheep seminal vesicles); host or cells: sheep seminal vesicles
T4 sequence (P05979 25-600): T2 sequence (P05979 25-600)
Protocol: as §8, §9, §10, §11

[1] = Table 2, 3 h at room temperature
[2] = Table 2, PGHS-1 22 nM, 3 h at room temperature
[3] = Table 1, 3 h at room temperature, 50 μM 14C-arachidonic acid
[4] = Table 1, 22 nM enzyme, 3 h at room temperature, 50 μM 14C-arachidonic acid
[5] = Table 3, 1 h at rt, average of duplicates, read-out: IC50 hCOX-2
[6] = Table 3, 1 h at rt, average of duplicates, read-out: IC50 oCOX-1

SMILES | IC50 (human PGHS-2; [1]) | IC50 (ovine PGHS-1; [2]) | IC50 (PGHS-1)/IC50 (PGHS-2) (human PGHS-2; Table 2) | further results
CC(=O)Oc1ccccc1SC1CCCCCC1 [Compound 58, 2-Acetoxyphenylcycloheptyl sulfide] | > 33 µM | > 0.033 mM |  | 
CSc1ccccc1OC(=O)C(F)(F)F [Compound 6] |  |  |  | inhibition at 100 µM (human PGHS-2; FIG. 8, 0.1 mM): ~35%
CSc1ccccc1OC(=O)CCl [Compound 7, 2-(α-chloroacetoxy)thioanisole] |  |  |  | IC50 (human PGHS-2; [3]): 360 µM; IC50 (ovine PGHS-1; [4]): 0.39 mM
CCCC/C=C/CSc1ccccc1OC(C)=O [Compound 75, 2-Acetoxyphenyl-trans-hept-2-enyl sulfide] |  | > 0.0165 mM |  | inhibition at 16.5 µM (ovine PGHS-1; at 16.5 μM): ~25%
CCCC#CCSc1ccccc1OC(C)=O [Compound 88, 2-Acetoxyphenylhex-2-ynyl sulfide] | 3 µM | 0.014 mM | 4.6 | inhibition of cyclooxygenase activity of human holoPGHS-2 (in words) (human PGHS-2; FIGS. 12 and 13, 1-16 μM): greatly inhibited
CCCCCCC#CCSc1ccccc1OC(C)=O [Compound 110, 2-Acetoxyphenylnon-2-ynyl sulfide] |  |  |  | IC50 (hCOX-2; [5]): 12.5 µM; IC50 (oCOX-1; [6]): 50 µM
CSc1ccccc1OC(=O)CBr [Compound 8, 2-(α-bromoacetoxy)thioanisole] |  |  |  | IC50 (human PGHS-2; [3]): 510 µM; IC50 (ovine PGHS-1; [4]): 0.32 mM
CCCCCCCC#CCSc1ccccc1OC(C)=O [Compound 111, 2-Acetoxyphenyldec-2-ynyl sulfide] |  |  |  | IC50 (hCOX-2; [5]): 16 µM; IC50 (oCOX-1; [6]): > 50 µM
CCCCCCCCSc1ccccc1OC(C)=O [Compound 55, 2-Acetoxyphenyloctyl sulfide] | > 33 µM | > 0.033 mM |  | 
CCCCC#CCSc1ccccc1O [Compound 82, 2-Hydroxyphenyl-hept-2-ynyl sulfide] |  |  |  | inhibition of cyclooxygenase activity of human holoPGHS-2 (in words) (human PGHS-2; FIGS. 12 and 13, 1-16 μM): very little effect; inhibition of PGHS-2 (in words) (human PGHS-2): did not inhibit; inhibition of PGHS-1 (in words) (ovine PGHS-1): did not inhibit
CCCC#CCCSc1ccccc1OC(C)=O [Compound 115, 2-Acetoxyephenylhept-3-ynyl sulfide] |  |  |  | IC50 (hCOX-2; [5]): 6.5 µM; IC50 (oCOX-1; [6]): 18 µM
C#CCSc1ccccc1OC(C)=O [Compound 91, 2-Acetoxyphenyl-prop-2-ynyl sulfide] | 25 µM | 0.04 mM | 1.6 | 
CC(=O)Oc1ccccc1SCCc1ccccc1 [Compound 60, 2-Acetoxyphenyl-2-phenylethyl sulfide] |  |  |  | IC50 (human PGHS-2; [3]): 100 µM
CC#CCSc1ccccc1OC(C)=O [Compound 90, 2-Acetoxyphenyl-but-2-ynyl sulfide] |  | > 0.035 mM | > 2 | 
CC(=O)Oc1ccccc1SCCCCCCCC(=O)O [Compound 63, 2-Acetoxyphenyl-8-carboxyheptyl sulfide] |  |  |  | IC50 (ovine PGHS-1; Table 1, cell printed in mM): > 1 mM
CCCCCCSc1ccccc1OC(C)=O [Compound 53, 2-Acetoxyphenylhexyl sulfide] | 3.5 µM | 0.008 mM | 2.3 | 
CCOCCCSc1ccccc1OC(C)=O [Compound 71, 2-Acetoxyphenyl-3-ethoxypropyl sulfide] | > 33 µM | > 0.033 mM |  | inhibition of cyclooxygenase activity of human holoPGHS-2 (in words) (human PGHS-2; FIG. 11, 8 μM (compound 67)): very little effect
CCCSc1ccccc1OC(C)=O [Compound 50, 2-Acetoxyphenylpropyl sulfide] | 66 µM | 0.066 mM | 1.0 | 
CCCCOCCSc1ccccc1OC(C)=O [Compound 67, 2-Acetoxyphenyl-2-butoxyethyl sulfide] | 7 µM | 0.022 mM | 3 | inhibition of cyclooxygenase activity of human holoPGHS-2 (in words) (human PGHS-2; FIG. 11, 8 μM (compound 67)): greatly inhibited
CCCCCC#CCSc1ccccc1OC(C)=O [Compound 109, 2-Acetoxyphenyloct-2-ynyl sulfide] |  |  |  | IC50 (hCOX-2; [5]): 7 µM; IC50 (oCOX-1; [6]): 33 µM
CCCCC#CCSc1ccccc1OC(=O)CBr [Compound 123, 2-(α-bromoacetoxy)phenylhept-2-ynyl sulfide] |  |  |  | IC50 (hCOX-2; [5]): 26 µM; IC50 (oCOX-1; [6]): 20 µM
CCSc1ccccc1OC(C)=O [Compound 49, 2-Acetoxyphenylethyl sulfide] | 200 µM | 0.375 mM | 1.8 | 
CC(=O)Oc1ccccc1SCC(C)C [Compound 51, 2-Acetoxyphenyl-2-methylpropyl sulfide] | 40 µM | 0.034 mM | 1.2 | 
CCCCC#CCSc1ccccc1OC(N)=O [Compound 122, 2-Carbamoyloxyphenylhept-2-ynyl sulfide] |  |  |  | IC50 (hCOX-2): > 40 µM; IC50 (oCOX-1): > 40 µM
CC(=O)Oc1ccccc1SC1CCCCC1 [Compound 57, 2-Acetoxyphenylcyclohexyl sulfide] | > 33 µM | > 0.033 mM |  | 
CCCCCCCSc1ccccc1O [Compound 38, 2-Hydroxyphenylheptyl sulfide] |  |  |  | inhibition of cyclooxygenase activity of human holoPGHS-2 (in words) (human PGHS-2; FIG. 9, 3 h at room temperature): very little effect; inhibition of PGHS-2 (in words) (human PGHS-2): did not inhibit; inhibition of PGHS-1 (in words) (ovine PGHS-1): did not inhibit
CCCCCCCCCSc1ccccc1OC(C)=O [Compound 56, 2-Acetoxyphenylnonyl sulfide] | > 33 µM | > 0.033 mM |  | 
CCC#CCSc1ccccc1OC(C)=O [Compound 89, 2-Acetoxyphenylpent-2-ynyl sulfide] | 5 µM | 0.02 mM | 4 | 
CCCCCCCS(=O)(=O)c1ccccc1OC(C)=O [Compound 93, 2-Acetoxyphenylheptyl sulfone] |  |  |  | inhibition of PGHS-2 (in words) (human PGHS-2): very poor inhibitor; inhibition of PGHS-1 (in words) (ovine PGHS-1): very poor inhibitor
CCCCC#CCSc1ccccc1OS(C)(=O)=O [Compound 124, 2-Methylsulfonyloxyphenylhept-2-ynyl sulfide] |  |  |  | IC50 (hCOX-2; [5]): > 40 µM; IC50 (oCOX-1; [6]): > 40 µM
